Measurements from the kinase profiling compilation of Christmann-Franck et al. (2016).

Legend:
Experiment in all cases: radiometric filter-binding kinase assay, Kinase HotSpot
Conditions in all cases: compound 0.5 µM; ATP 10 µM
ABL2 (human) = ABL2 (human) (UniProt P42684)
ACVRL1 (human) = ACVRL1 (human) (UniProt P37023)
AKT1 (human) = AKT1 (human) (UniProt P31749)
AURKB (human) = AURKB (human) (UniProt Q96GD4)
BRSK2 (human) = BRSK2 (human) (UniProt Q8IWQ3)
CDK1 CCNA2 (human) = CDK1 CCNA2 (human) (UniProt P06493+P20248)
CDK2 CCNA2 (human) = CDK2 CCNA2 (human) (UniProt P24941+P20248)
CDK4 CCND1 (human) = CDK4 CCND1 (human) (UniProt P24385+P11802)
CHEK2 (human) = CHEK2 (human) (UniProt O96017)
CSK (human) = CSK (human) (UniProt P41240)
CSNK1E (human) = CSNK1E (human) (UniProt P49674)
CSNK1G2 (human) = CSNK1G2 (human) (UniProt P78368)
CSNK2A2 (human) = CSNK2A2 (human) (UniProt P19784)
EPHA2 (human) = EPHA2 (human) (UniProt P29317)
EPHB1 (human) = EPHB1 (human) (UniProt P54762)
FLT3 (human) = FLT3 (human) (UniProt P36888)
FRK (human) = FRK (human) (UniProt P42685)
GRK6 (human) = GRK6 (human) (UniProt P43250)
GSG2 (human) = GSG2 (human) (UniProt Q8TF76)
HIPK4 (human) = HIPK4 (human) (UniProt Q8NE63)
IGF1R (human) = IGF1R (human) (UniProt P08069)
KIT (human) = KIT (human) (UniProt P10721)
LCK (human) = LCK (human) (UniProt P06239)
MAP4K2 (human) = MAP4K2 (human) (UniProt Q12851)
MAPKAPK2 (human) = MAPKAPK2 (human) (UniProt P49137)
MARK1 (human) = MARK1 (human) (UniProt Q9P0L2)
MARK3 (human) = MARK3 (human) (UniProt P27448)
MINK1 (human) = MINK1 (human) (UniProt Q8N4C8)
MKNK2 (human) = MKNK2 (human) (UniProt Q9HBH9)
NEK4 (human) = NEK4 (human) (UniProt P51957)
NTRK2 (human) = NTRK2 (human) (UniProt Q16620)
NUAK2 (human) = NUAK2 (human) (UniProt Q9H093)
OXSR1 (human) = OXSR1 (human) (UniProt O95747)
PIM1 (human) = PIM1 (human) (UniProt P11309)
PIM3 (human) = PIM3 (human) (UniProt Q86V86)
PRKCB1 (human) = PRKCB1 (human) (UniProt P05771)
PRKD1 (human) = PRKD1 (human) (UniProt Q15139)
RPS6KA3 KD1 KD2 (human) = RPS6KA3 KD1 KD2 (human) (UniProt P51812)
STK17A (human) = STK17A (human) (UniProt Q9UEE5)
STK39 (human) = STK39 (human) (UniProt Q9UEW8)
TAOK3 (human) = TAOK3 (human) (UniProt Q9H2K8)
[1] = target: TYK2 JH1 catalytic (human) (UniProt P29597)

FLT3 (human), sequence (P36888 whole entry, looked up): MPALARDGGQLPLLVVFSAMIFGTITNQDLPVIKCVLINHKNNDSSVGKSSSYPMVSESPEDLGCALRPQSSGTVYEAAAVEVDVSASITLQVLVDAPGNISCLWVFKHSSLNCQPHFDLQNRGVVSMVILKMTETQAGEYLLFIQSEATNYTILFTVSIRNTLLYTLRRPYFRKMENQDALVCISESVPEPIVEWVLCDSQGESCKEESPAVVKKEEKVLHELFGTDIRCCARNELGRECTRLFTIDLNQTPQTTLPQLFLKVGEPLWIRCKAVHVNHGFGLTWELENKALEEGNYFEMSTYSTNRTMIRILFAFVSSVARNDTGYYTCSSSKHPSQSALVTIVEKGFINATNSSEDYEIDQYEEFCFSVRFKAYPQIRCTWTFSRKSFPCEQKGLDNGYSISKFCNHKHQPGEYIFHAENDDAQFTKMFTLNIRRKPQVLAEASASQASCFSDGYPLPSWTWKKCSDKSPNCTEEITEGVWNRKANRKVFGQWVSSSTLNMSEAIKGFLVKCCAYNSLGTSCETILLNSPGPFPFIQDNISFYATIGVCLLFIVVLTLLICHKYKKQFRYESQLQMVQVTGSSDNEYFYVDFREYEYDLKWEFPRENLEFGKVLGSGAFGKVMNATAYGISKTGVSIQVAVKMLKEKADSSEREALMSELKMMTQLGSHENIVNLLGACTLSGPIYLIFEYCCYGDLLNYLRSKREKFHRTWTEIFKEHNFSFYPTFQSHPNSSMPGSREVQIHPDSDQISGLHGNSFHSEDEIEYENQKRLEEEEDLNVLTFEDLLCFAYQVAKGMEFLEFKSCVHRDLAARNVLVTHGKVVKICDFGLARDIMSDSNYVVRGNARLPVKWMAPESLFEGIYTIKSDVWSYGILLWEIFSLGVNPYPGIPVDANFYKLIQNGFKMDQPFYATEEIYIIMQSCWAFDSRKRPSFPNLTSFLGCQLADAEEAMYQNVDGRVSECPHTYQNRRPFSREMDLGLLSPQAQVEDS
MKNK2 (human), sequence (Q9HBH9 whole entry, looked up): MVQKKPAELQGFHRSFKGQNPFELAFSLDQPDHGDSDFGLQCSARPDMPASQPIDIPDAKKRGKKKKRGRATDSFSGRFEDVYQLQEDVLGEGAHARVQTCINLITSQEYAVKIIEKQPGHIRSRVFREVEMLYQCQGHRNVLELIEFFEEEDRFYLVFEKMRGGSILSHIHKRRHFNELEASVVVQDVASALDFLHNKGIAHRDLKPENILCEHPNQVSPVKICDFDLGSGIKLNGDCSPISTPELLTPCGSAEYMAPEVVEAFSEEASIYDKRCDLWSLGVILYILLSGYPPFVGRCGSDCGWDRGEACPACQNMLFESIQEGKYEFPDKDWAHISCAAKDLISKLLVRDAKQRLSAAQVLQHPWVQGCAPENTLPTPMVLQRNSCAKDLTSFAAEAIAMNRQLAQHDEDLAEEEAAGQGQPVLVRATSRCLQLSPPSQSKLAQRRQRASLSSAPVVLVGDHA
KIT (human), sequence (P10721 whole entry, looked up): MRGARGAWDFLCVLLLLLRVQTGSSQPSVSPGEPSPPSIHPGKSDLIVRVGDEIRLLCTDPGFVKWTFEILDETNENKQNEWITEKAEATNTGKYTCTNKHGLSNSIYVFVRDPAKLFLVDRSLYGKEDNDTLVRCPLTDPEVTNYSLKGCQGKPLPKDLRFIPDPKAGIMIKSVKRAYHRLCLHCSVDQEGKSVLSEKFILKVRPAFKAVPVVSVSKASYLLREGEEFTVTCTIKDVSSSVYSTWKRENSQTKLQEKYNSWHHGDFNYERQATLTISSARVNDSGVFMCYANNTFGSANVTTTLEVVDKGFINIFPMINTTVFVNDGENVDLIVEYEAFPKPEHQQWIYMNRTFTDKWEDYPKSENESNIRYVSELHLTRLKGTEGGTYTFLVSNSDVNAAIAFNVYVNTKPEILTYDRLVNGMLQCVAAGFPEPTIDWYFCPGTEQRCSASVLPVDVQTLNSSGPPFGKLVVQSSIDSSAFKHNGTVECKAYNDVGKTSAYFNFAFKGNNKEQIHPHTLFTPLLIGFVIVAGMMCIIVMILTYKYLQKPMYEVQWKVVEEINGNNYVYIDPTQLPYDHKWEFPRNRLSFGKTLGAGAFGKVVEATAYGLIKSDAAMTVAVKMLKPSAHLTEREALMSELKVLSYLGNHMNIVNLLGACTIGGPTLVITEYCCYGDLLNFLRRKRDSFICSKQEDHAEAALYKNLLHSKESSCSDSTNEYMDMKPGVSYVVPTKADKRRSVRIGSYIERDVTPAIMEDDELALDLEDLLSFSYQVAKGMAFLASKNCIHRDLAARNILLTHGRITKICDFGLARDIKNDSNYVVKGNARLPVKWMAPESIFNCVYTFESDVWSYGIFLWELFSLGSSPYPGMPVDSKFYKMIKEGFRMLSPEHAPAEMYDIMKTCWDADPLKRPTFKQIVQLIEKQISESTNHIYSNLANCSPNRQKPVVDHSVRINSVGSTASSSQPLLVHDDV
STK17A (human), sequence (Q9UEE5 whole entry, looked up): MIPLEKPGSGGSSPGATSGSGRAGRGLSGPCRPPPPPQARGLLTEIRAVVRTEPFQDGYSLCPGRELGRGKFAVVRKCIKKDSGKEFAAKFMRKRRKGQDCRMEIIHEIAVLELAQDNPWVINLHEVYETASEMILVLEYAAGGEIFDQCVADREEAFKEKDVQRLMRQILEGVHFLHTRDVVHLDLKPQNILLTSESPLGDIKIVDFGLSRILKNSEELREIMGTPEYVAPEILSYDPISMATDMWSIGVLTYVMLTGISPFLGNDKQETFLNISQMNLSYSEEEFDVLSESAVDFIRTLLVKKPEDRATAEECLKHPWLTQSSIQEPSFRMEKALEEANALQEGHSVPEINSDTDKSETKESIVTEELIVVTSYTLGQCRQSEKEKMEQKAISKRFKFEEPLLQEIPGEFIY
CSK (human), sequence (P41240 whole entry, looked up): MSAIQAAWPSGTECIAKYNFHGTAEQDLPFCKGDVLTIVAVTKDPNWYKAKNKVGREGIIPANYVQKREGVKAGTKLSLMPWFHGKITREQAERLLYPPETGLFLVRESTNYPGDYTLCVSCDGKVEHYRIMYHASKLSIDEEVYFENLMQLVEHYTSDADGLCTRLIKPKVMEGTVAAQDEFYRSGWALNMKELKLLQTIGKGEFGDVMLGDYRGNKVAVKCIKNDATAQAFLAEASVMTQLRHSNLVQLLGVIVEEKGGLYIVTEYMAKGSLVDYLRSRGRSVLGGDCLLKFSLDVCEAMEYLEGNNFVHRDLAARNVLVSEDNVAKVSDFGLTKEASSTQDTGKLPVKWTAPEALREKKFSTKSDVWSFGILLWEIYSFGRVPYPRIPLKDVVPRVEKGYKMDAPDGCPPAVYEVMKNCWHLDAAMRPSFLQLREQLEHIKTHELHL
CSNK1E (human), sequence (P49674 whole entry, looked up): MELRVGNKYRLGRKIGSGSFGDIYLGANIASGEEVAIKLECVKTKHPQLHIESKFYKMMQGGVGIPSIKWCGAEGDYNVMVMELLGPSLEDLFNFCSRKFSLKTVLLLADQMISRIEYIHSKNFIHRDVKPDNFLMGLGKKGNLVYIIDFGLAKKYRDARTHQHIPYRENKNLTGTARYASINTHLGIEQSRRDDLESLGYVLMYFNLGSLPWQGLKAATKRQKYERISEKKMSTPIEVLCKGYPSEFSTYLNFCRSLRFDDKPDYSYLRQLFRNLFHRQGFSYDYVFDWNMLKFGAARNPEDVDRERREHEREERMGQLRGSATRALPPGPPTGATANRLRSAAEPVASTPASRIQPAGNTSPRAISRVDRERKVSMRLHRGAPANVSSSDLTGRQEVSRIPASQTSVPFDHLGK
GSG2 (human), sequence (Q8TF76 whole entry, looked up): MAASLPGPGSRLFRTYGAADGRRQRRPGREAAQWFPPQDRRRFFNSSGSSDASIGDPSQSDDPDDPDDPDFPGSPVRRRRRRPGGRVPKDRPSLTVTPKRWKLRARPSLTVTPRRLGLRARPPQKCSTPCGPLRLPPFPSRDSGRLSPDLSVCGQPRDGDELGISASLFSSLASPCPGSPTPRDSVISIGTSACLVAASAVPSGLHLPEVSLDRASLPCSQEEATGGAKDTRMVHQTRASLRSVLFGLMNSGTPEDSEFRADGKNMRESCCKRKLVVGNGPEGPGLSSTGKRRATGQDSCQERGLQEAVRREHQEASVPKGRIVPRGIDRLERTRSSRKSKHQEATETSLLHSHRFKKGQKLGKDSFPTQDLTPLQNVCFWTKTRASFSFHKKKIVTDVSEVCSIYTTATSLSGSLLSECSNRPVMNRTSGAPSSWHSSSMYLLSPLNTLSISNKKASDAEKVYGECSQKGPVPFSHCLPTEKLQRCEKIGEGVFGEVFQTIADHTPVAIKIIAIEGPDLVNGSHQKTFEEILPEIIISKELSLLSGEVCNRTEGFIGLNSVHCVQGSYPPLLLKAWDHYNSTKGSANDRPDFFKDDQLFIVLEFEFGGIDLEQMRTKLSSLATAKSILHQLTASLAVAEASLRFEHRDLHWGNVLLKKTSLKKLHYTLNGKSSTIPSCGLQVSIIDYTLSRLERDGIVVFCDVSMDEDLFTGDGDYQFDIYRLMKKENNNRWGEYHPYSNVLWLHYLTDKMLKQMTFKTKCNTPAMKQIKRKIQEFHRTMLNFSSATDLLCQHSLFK
CSNK1G2 (human), sequence (P78368 whole entry, looked up): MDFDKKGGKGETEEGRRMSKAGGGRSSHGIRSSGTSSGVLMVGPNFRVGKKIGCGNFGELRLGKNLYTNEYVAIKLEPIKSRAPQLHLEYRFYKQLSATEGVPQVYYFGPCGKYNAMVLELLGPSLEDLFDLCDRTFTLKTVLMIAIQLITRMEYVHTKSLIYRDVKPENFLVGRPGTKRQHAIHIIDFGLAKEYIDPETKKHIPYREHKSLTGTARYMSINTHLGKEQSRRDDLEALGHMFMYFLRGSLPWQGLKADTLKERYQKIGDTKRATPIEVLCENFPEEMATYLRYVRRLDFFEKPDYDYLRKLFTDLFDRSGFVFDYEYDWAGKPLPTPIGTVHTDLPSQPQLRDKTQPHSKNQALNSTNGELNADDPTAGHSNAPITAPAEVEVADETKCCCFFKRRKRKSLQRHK

O=C(CCCc1ccc(-c2ccccc2F)cc1)Nc1ccc(O)cc1
residual activity (ABL2 (human)): 95.3%
residual activity (ACVRL1 (human)): 101%
residual activity (AKT1 (human)): 97.7%
residual activity (AURKB (human)): 106%
residual activity (BRSK2 (human)): 99.2%
residual activity (CDK1 CCNA2 (human)): 93.7%
residual activity (CDK2 CCNA2 (human)): 92.7%
residual activity (CDK4 CCND1 (human)): 102%
residual activity (CHEK2 (human)): 101%
residual activity (CSK (human)): 88%
residual activity (CSNK1E (human)): 99.4%
residual activity (CSNK1G2 (human)): 99.4%
residual activity (CSNK2A2 (human)): 78.7%
residual activity (EPHA2 (human)): 101%
residual activity (EPHB1 (human)): 96.4%
residual activity (FLT3 (human)): 104%
residual activity (FRK (human)): 91.9%
residual activity (GRK6 (human)): 104%
residual activity (GSG2 (human)): 94.7%
residual activity (HIPK4 (human)): 105%
residual activity (IGF1R (human)): 106%
residual activity (KIT (human)): 96.3%
residual activity (LCK (human)): 95.5%
residual activity (MAP4K2 (human)): 104%
residual activity (MAPKAPK2 (human)): 103%
residual activity (MARK1 (human)): 96.7%
residual activity (MARK3 (human)): 101%
residual activity (MINK1 (human)): 97.3%
residual activity (MKNK2 (human)): 106%
residual activity (NEK4 (human)): 103%
residual activity (NTRK2 (human)): 95.8%
residual activity (NUAK2 (human)): 92.9%
residual activity (OXSR1 (human)): 102%
residual activity (PIM1 (human)): 97.9%
residual activity (PIM3 (human)): 104%
residual activity (PRKCB1 (human)): 93.4%
residual activity (PRKD1 (human)): 98.4%
residual activity (RPS6KA3 KD1 KD2 (human)): 95.8%
residual activity (STK17A (human)): 101%
residual activity (STK39 (human)): 95.4%
residual activity (TAOK3 (human)): 91.4%
residual activity [1]: 96.5%

O=C(O)/C=C/c1cc(Br)c(Br)c(Br)c1Br
residual activity (ABL2 (human)): 88.7%
residual activity (ACVRL1 (human)): 103%
residual activity (AKT1 (human)): 97.4%
residual activity (AURKB (human)): 88.5%
residual activity (BRSK2 (human)): 91.1%
residual activity (CDK1 CCNA2 (human)): 88.6%
residual activity (CDK2 CCNA2 (human)): 85.6%
residual activity (CDK4 CCND1 (human)): 89.3%
residual activity (CHEK2 (human)): 77.5%
residual activity (CSK (human)): 103%
residual activity (CSNK1E (human)): 83.6%
residual activity (CSNK1G2 (human)): 90.1%
residual activity (CSNK2A2 (human)): 17%
residual activity (EPHA2 (human)): 97.9%
residual activity (EPHB1 (human)): 95.2%
residual activity (FLT3 (human)): 79%
residual activity (FRK (human)): 102%
residual activity (GRK6 (human)): 97.2%
residual activity (GSG2 (human)): 88.4%
residual activity (HIPK4 (human)): 102%
residual activity (IGF1R (human)): 96%
residual activity (KIT (human)): 89.2%
residual activity (LCK (human)): 99.3%
residual activity (MAP4K2 (human)): 89.3%
residual activity (MAPKAPK2 (human)): 91.5%
residual activity (MARK1 (human)): 93.7%
residual activity (MARK3 (human)): 104%
residual activity (MINK1 (human)): 96%
residual activity (MKNK2 (human)): 53.8%
residual activity (NEK4 (human)): 54.6%
residual activity (NTRK2 (human)): 98.2%
residual activity (NUAK2 (human)): 98.9%
residual activity (OXSR1 (human)): 93.5%
residual activity (PIM1 (human)): 16.2%
residual activity (PIM3 (human)): 17.7%
residual activity (PRKCB1 (human)): 95.5%
residual activity (PRKD1 (human)): 88.9%
residual activity (RPS6KA3 KD1 KD2 (human)): 41.2%
residual activity (STK17A (human)): 84.6%
residual activity (STK39 (human)): 97.9%
residual activity (TAOK3 (human)): 85.3%
residual activity [1]: 110%
